Measurements taken from PubChem BioAssay (NCI).
Several values for one entry are separate records, joined by “and”; a condition that tells them apart may be missing. Identical values can stand only once.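 Results reflect a 48-hour exposure of cells in 96-well plates to compound at five concentrations. GI50: concentration for 50% inhibition of growth. TGI: total growth inhibition.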

How the values were obtained:
Test in all cases: NCI anticancer screen, dose series, 48 h
[1] = system: RPMI-8226 leukemia
[2] = system: LOX IMVI melanoma
[3] = system: NCI/ADR-RES ovarian
[4] = system: HT29 colon
[5] = system: OVCAR-4 ovarian
[6] = system: MALME-3M melanoma
[7] = system: CAKI-1 renal
[8] = system: OVCAR-5 ovarian
[9] = system: SF-295 CNS
[10] = system: HCT-15 colon

| Compound | GI50 [1] | TGI [1] | GI50 [2] | TGI [2] | GI50 [3] | TGI [3] | GI50 [4] | TGI [4] | GI50 [5] | TGI [5] | GI50 [6] | TGI [6] | GI50 [7] | TGI [7] | GI50 [8] | TGI [8] | GI50 [9] | TGI [9] | GI50 [10] | TGI [10] |
| --- | --- | --- | --- | --- | --- | --- | --- | --- | --- | --- | --- | --- | --- | --- | --- | --- | --- | --- | --- | --- |
| COC(=O)Cc1ccc(Oc2cnc3cc(F)c(F)cc3n2)cc1 | 23.2 µM | 81 µM | > 100 µM | > 100 µM | 23.8 µM | 81.1 µM | 58.1 µM | > 100 µM | 58.3 µM | > 100 µM | > 100 µM | > 100 µM | > 100 µM | > 100 µM | > 100 µM | > 100 µM | > 100 µM | > 100 µM | > 100 µM | > 100 µM |
| O=C(O)C(Cl)(c1ccccc1)c1ccccc1 | – | > 100 µM | – | > 100 µM | – | > 100 µM | – | > 100 µM | – | > 100 µM | – | > 100 µM | – | > 100 µM | – | > 100 µM | – | > 100 µM | – | > 100 µM |
| Cc1ccc(S(=O)(=O)NNC(=O)c2cc(C)c(C)cc2N)cc1 | – | > 100 µM | – | > 100 µM | – | > 100 µM | – | > 100 µM | – | > 100 µM | – | > 100 µM | – | > 100 µM | – | > 100 µM | – | > 100 µM | – | > 100 µM |
| Cc1cc(C)c(NC(=S)NC(=O)c2ccccc2)cc1C | – | > 100 µM | – | > 100 µM | – | > 100 µM | – | > 100 µM | – | > 100 µM | – | > 100 µM | – | > 100 µM | – | > 100 µM | – | > 100 µM | – | > 100 µM |
| CO[C@H](C(=O)[C@@H](O)[C@@H](C)O)[C@@H]1Cc2cc3cc(OC4CC(OC5CC(O)C(O)C(C)O5)C(O)C(C)O4)c(C)c(O)c3c(O)c2C(=O)[C@H]1OC1CC(OC2CC(OC3CC(C)(O)C(O)C(C)O3)C(O)C(C)O2)C(O)C(C)O1 (stereo not given in full) | 0.0265 µg/mL and 0.0214 µg/mL | – | 0.0262 µg/mL | – | 23 µg/mL and 0.633 µg/mL | – | 0.029 µg/mL and 0.0205 µg/mL | – | 0.0389 µg/mL and 0.0236 µg/mL | – | 0.0146 µg/mL and 0.0159 µg/mL | – | 0.11 µg/mL and 0.0722 µg/mL | – | 0.0328 µg/mL and 0.113 µg/mL | – | 0.0253 µg/mL | – | 0.286 µg/mL and 0.843 µg/mL | – |
| COc1nc(N)nc2c1ncn2C1OC(CO)C(O)C1O (stereo not given) | 3580 µM | > 5000 µM | 3540 µM | > 5000 µM | > 5000 µM | > 5000 µM | > 5000 µM | > 5000 µM | > 5000 µM | > 5000 µM | 1150 µM | > 5000 µM | 3120 µM | > 5000 µM | > 5000 µM | > 5000 µM | > 5000 µM | > 5000 µM | > 5000 µM | > 5000 µM |
| Cc1ccc(C)c(C2NC(=O)c3ccccc3N2)c1 (stereo not given) | – | 16.4 µM | – | > 100 µM | – | 8.37 µM | – | > 54.2 µM | – | > 100 µM | – | > 95.7 µM | – | 35.3 µM | – | > 69.7 µM | – | > 33.1 µM | – | 50.6 µM |
| CCn1c(-c2cc3ccccc3cc2O)nn(C(=O)c2c(Cl)cccc2Cl)c1=S | 13.3 µM | 46.1 µM | > 50 µM | > 50 µM | > 50 µM | > 50 µM | > 50 µM | > 50 µM | > 50 µM | > 50 µM | 30.8 µM | > 50 µM | 21.4 µM | > 50 µM | > 50 µM | > 50 µM | 34.6 µM | > 50 µM | 16.3 µM | > 50 µM |
| COc1ccccc1CNCCCN1C(=O)c2ccc3c4c(ccc(c24)C1=O)C(=O)N(CCCCNCCCN)C3=O | 1.91 µM | 10.7 µM | 0.654 µM | 1.69 µM | 5.98 µM | 34.2 µM | 0.95 µM | 3.37 µM | 0.458 µM | 1.24 µM | 0.871 µM | 2.18 µM | 13.1 µM | 34.8 µM | 2.95 µM | 9.02 µM | 3.65 µM | 17.4 µM | 4.43 µM | 18.6 µM |
| CN/N=C(\C)C(CN(C)C)C(c1ccccc1)c1c(O)c2ccccc2oc1=O (stereo not given) | – | > 100 µM | – | > 100 µM | – | > 100 µM | – | > 100 µM | – | > 100 µM | – | > 100 µM | – | > 100 µM | – | > 100 µM | – | > 100 µM | – | > 100 µM |
| NC(=O)c1cccc(Nc2nccc(Nc3cccc4[nH]ncc34)n2)c1 | > 25 µM | > 25 µM | 6.07 µM | > 18.4 µM | > 25 µM | > 25 µM | 9.68 µM | > 25 µM | 13.2 µM | > 25 µM | 24.4 µM | > 25 µM | 14.6 µM | > 25 µM | 7.5 µM | > 25 µM | 15.4 µM | > 25 µM | > 25 µM | > 25 µM |
